In this experiment the target is T1, Polyunsaturated fatty acid 5-lipoxygenase (Homo sapiens, UniProt P09917).
T1 sequence (P09917 whole entry): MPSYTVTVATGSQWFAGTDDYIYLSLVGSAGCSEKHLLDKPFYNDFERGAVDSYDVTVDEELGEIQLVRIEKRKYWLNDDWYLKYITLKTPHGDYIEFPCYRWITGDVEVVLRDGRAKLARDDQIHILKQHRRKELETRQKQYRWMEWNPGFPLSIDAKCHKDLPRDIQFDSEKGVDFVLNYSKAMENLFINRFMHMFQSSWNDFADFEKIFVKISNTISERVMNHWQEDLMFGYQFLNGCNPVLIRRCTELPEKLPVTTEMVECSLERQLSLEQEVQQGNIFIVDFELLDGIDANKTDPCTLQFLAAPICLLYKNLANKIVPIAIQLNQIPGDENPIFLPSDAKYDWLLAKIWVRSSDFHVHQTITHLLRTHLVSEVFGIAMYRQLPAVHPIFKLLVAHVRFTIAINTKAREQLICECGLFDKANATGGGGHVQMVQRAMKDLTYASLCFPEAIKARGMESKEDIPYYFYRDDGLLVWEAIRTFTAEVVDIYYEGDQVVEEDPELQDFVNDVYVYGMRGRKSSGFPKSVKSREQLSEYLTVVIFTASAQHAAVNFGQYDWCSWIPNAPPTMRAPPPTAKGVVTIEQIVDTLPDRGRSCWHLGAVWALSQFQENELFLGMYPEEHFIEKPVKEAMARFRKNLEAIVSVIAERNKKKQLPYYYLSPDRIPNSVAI
Kind of experiment: Inhibition of LT biosynthesis in vitro using A-23187-stimulated human whole blood. In kind it is functional, tissue-based.

Structures are written as SMILES. pIC50: −log10 of the molar value.

As a reminder, the pIC50 is −log10 of the IC50, conventionally taken in molar units. A high value points to a low IC50.

In turn, `CC(=O)N(C)c1ccc(S(=O)(=O)c2cc(C3(C)COC(C)(C)O3)cs2)cc1` (stereo unspecified) had a pIC50 of 6.08. Next, `COC1(c2sc(Sc3ccc4c(c3)CCC(=O)N4C)nc2C)CCOCC1`: 6.85; `CO/N=C(\C)c1ccc(Sc2cc(C3(C)COC(C)(C)O3)cs2)cc1` (stereo unspecified): 6.57. For `COC1(c2cc(OCc3ccc4c(ccc(=O)n4C)c3)cc(F)c2C)CCOCC1`, the negative logarithm of the IC50 (pIC50) was 7.70. The result for `COC1(c2cc(Sc3ccc4c(c3)CCC(=O)N4C)cc(F)c2C)CCOCC1` reads 7.22; that for `C/C(=N\O)c1ccc(S(=O)(=O)c2cc([C@@]3(C)COC(C)(C)O3)cs2)cc1`, 7.05.

For the compound `COC1(c2cc(S(=O)(=O)c3ccc4c(ccc(=O)n4C)c3)ccc2C)CCOCC1`, the pIC50 was 7.40.

Compound `CN(C)S(=O)(=O)c1ccc(Sc2cc(C3(C)COC(C)(C)O3)cs2)cc1` (stereo unspecified) showed a negative-log IC50 (pIC50) of 6.68. The result for `C/C(=N\O)c1ccc(S(=O)(=O)c2ncc([C@@]3(C)COC(C)(C)O3)s2)cc1` reads 6.70; that for `C/C(=N\OCC#N)c1ccc(S(=O)(=O)c2ncc([C@@]3(C)COC(C)(C)O3)s2)cc1`, 6.92. `CC(=O)N(C)c1ccc(Sc2cc([C@@]3(C)COC(C)(C)O3)cs2)cc1` had a pIC50 of 7.40. Next, `CN(c1ccc(Sc2cc(C3(C)COC(C)(C)O3)cs2)cc1)S(C)(=O)=O` (stereo unspecified): 6.80; `C/C(=N\OCC#N)c1ccc(S(=O)(=O)c2cc([C@@]3(C)COC(C)(C)O3)cs2)cc1`: 7.30. The result for `CC(=O)N(C)c1ccc(Sc2cc([C@]3(C)COC(C)(C)O3)cs2)cc1` reads 5.93. The result for `COC1(c2cc(Sc3ccc4c(c3)OCC(=O)N4C)cc(F)c2C)CCOCC1` reads 7.40; that for `C/C(=N\O)c1ccc(Sc2cc([C@@]3(C)COC(C)(C)O3)cs2)cc1`, 7.40.

The compound `CC(=O)c1ccc(Sc2ncc([C@@]3(C)COC(C)(C)O3)s2)cc1` had a pIC50 of 6.41. This pIC50 is 0.99 log units lower than that of the compound before. Next, `CC1(C)OCC(C)(c2cccc(OCc3ccc4ccccc4c3)c2)O1` (stereo unspecified): 6.46; `CN1C(=O)COc2ccc(Sc3cc(C4(C)COC(C)(C)O4)cs3)cc21` (stereo unspecified): 7.40; `CC(=O)N(C)c1ccc(Sc2cc(C3(C)COC(C)(C)O3)cs2)cc1` (stereo unspecified): 6.82. With `C/C(=N\OCC#N)c1ccc(Sc2ncc([C@@]3(C)COC(C)(C)O3)s2)cc1`, the pIC50 is 7.52. The result for `C/C(=N\OCCN1CCOCC1)c1ccc(Sc2cc([C@@]3(C)COC(C)(C)O3)cs2)cc1` reads 5.82; that for `COC1(c2cc(Sc3ccc(/C(C)=N/O)cc3)cc(F)c2C)CCOCC1`, 7.70; that for `C/C(=N\OCC#N)c1ccc(Sc2cc([C@@]3(C)COC(C)(C)O3)cs2)cc1`, 8.00.

In turn, `C/C(=N\O)c1ccc(Sc2cc(C3(C)COC(C)(C)O3)cs2)cc1` (stereo unspecified) gave a negative-log IC50 (pIC50) of 7.40. In turn, `C/C(=N\O)c1ccc(Sc2ncc([C@@]3(C)COC(C)(C)O3)s2)cc1` gave a pIC50 of 6.89. `CN1C(=O)CCc2ccc(Sc3cc(C4(C)COC(C)(C)O4)cs3)cc21` (stereo unspecified) gave a pIC50 of 7.00. `CC(=O)N(C)c1ccc(Sc2ncc([C@]3(C)COC(C)(C)O3)s2)cc1` had a pIC50 of 5.21. The result for `CC(=O)c1ccc(Sc2cc(C3(C)COC(C)(C)O3)cs2)cc1` (stereo unspecified) reads 6.22; that for `COC1(c2cc(Sc3ccc4c(c3)CCC(=O)N4C)sc2C)CCOCC1`, 7.70. In turn, `COC1(c2cc(Sc3ccc(N(C)C(C)=O)cc3)cc(F)c2C)CCOCC1` showed a pIC50 of 7.52.
